Measured values published in patent US8034579B2, “Proteins with enhanced functionality and methods of making novel proteins using circular permutation” (Emory University, priority 2005, dated 2011).

Experiments:
Format in all cases: biochemical
[1] = molecular target: T1, Candida antarctica lipase B (CALB), wild type, SEQ ID NO: 2, L1/P317 (Moesziomyces antarcticus, UniProt P41365); assay: Initial rate of hydrolysis of DiFMU octanoate, wild type; conditions: kcat/KM (variant)/kcat/KM (wild type)
T1 sequence (P41365 26-342): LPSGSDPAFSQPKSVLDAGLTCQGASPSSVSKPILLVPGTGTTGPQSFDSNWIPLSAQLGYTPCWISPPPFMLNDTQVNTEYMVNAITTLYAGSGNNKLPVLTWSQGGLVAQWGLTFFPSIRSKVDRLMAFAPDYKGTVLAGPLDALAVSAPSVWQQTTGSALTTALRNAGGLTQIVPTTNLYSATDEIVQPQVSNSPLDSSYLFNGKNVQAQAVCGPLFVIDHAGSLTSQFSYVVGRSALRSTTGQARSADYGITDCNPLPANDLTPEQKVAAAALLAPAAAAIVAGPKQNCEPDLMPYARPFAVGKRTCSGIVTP
Excerpt: (§1) Kinetic analysis of protein variants: To examine the impact of circular permutation on catalysis eleven functional CALB variants with termini in or near the active site were selected for detailed kinetic characterization. The locations of the termini in these variants are shown on the structure of CALB in FIG. 6; the numbers correspond to the amino acid residue of the new terminus. Following overexpression in P. pastoris, the selected circularly permuted proteins were purified to homogeneity. The catalytic performance of these variants was determined in activity assays with two standard lipase substrates, measuring the initial rates of hydrolysis of the chromogenic substrate p-nitrophenol butyrate (pNB) and the fluorogenic substrate 6,8-difluoro-4-methylumbelliferyl (DiFMU) octanoate. […]
(§2) Lipase activity was determined by measuring the initial hydrolysis rate of p-NB and DiFMU octanoate at room temperature on a Synergy-HT microtiterplate reader (Bio-Tek Instruments, Winooski, Vt.). Stock solutions of p-NB (200 mM) and DiFMU octanoate (3 mM) were prepared in DMSO. p-NB hydrolysis over a substrate range of 0-1.6 mM was measured in 50 mM K-phosphate buffer (pH 7.5) at 400 nm ( ? for p-NB=13260 M^1 cm^−1) as described in Bender, M. L. et al., J Am Chem Soc 1968, 90, (1), 201-7, which is hereby incorporated by reference. […]

[2] = molecular target: T2, Candida antarctica lipase B (CALB) circularly permuted variant cp44, G44/T43 (Moesziomyces antarcticus, UniProt P41365); assay: Initial rate of hydrolysis of DiFMU octanoate, cp44
T2 construct: Pichia pastoris, purified
Excerpt: (§3) Kinetic analysis of protein variants: To examine the impact of circular permutation on catalysis eleven functional CALB variants with termini in or near the active site were selected for detailed kinetic characterization. The locations of the termini in these variants are shown on the structure of CALB in FIG. 6; the numbers correspond to the amino acid residue of the new terminus. Following overexpression in P. pastoris, the selected circularly permuted proteins were purified to homogeneity. The catalytic performance of these variants was determined in activity assays with two standard lipase substrates, measuring the initial rates of hydrolysis of the chromogenic substrate p-nitrophenol butyrate (pNB) and the fluorogenic substrate 6,8-difluoro-4-methylumbelliferyl (DiFMU) octanoate.
(§4) The overexpression and purification of wild type CALB was performed as described in Rotticci-Mulder, J. C. et al., Protein Expr Purif 2001, 21, (3), 386-92, which is hereby incorporated by reference. The same protocol was adopted for the isolation of circular permutation variants of CALB. Briefly, pPIC9-ca/B was linearized by SacI digestion and electroporated into P. pastoris cells (GS115). Aliquots were plated on MD His^− plates and incubated at 30° C. Colonies appeared on plates after 2 days of incubation. A single colony was picked to inoculate 25 ml BMGY medium and the culture was incubated at 30° C. until it reached an OD600 of 2-6. The cells were harvested and resuspended in BMMY medium to an OD600 of 1. Protein expression was induced by addition of methanol to a final concentration of 0.5% (v/v) every 24 hours. After 4 days of incubation, the culture medium containing the lipase was separated from the cells by centrifugation (1500 g, 4° C., 10 min).
(§5) Lipase activity was determined by measuring the initial hydrolysis rate of p-NB and DiFMU octanoate at room temperature on a Synergy-HT microtiterplate reader (Bio-Tek Instruments, Winooski, Vt.). Stock solutions of p-NB (200 mM) and DiFMU octanoate (3 mM) were prepared in DMSO. p-NB hydrolysis over a substrate range of 0-1.6 mM was measured in 50 mM K-phosphate buffer (pH 7.5) at 400 nm ( ? for p-NB=13260 M^1 cm^−1) as described in Bender, M. L. et al., J Am Chem Soc 1968, 90, (1), 201-7, which is hereby incorporated by reference. The rate of DiFMU octanoate hydrolysis was determined by measuring the DiFMU formation over a substrate range of 0-12 μM in 50 mM K-phosphate buffer (pH 7.0) at an excitation/emission wavelength 360/460 nm. Kinetic constants were calculated by fitting the initial rates to the Michaelis-Menten equation using the Origin® software (version 7; OriginLab Corporation).

[3] = molecular target: T3, Candida antarctica lipase B (CALB) circularly permuted variant cp144, His-L144/A141 (Moesziomyces antarcticus, UniProt P41365); assay: Initial rate of hydrolysis of DiFMU octanoate, cp144 (His)
T3 construct: secreted from Pichia pastoris GS115, purified
Excerpt: as §3, §4, §5

[4] = molecular target: T4, Candida antarctica lipase B (CALB) circularly permuted variant cp144a, L144/A141 (Moesziomyces antarcticus, UniProt P41365); assay: Initial rate of hydrolysis of DiFMU octanoate, cp144a
T4 construct: Pichia pastoris, purified
Excerpt: as §3, §4
as §5, with “Corporation). […]” for “Corporation).”

[5] = molecular target: T5, Candida antarctica lipase B (CALB) circularly permuted variant cp148, His-A148/L147 (Moesziomyces antarcticus, UniProt P41365); assay: Initial rate of hydrolysis of DiFMU octanoate, cp148 (His)
T5 construct: Pichia pastoris, purified
Excerpt: as §3, §4, §5

[6] = molecular target: T6, Candida antarctica lipase B (CALB) circularly permuted variant cp148a, A148/L147 (Moesziomyces antarcticus, UniProt P41365); assay: Initial rate of hydrolysis of DiFMU octanoate, cp148a
T6 construct: Pichia pastoris, purified
Excerpt: as §3, §4
as §5, with “Corporation). […]” for “Corporation).”

[7] = molecular target: T7, Candida antarctica lipase B (CALB) circularly permuted variant cp150, His-S150A/149 (Moesziomyces antarcticus, UniProt P41365); assay: Initial rate of hydrolysis of DiFMU octanoate, cp150 (His)
T7 construct: Pichia pastoris, purified
Excerpt: as §3, §4, §5

[8] = molecular target: T8, Candida antarctica lipase B (CALB) circularly permuted variant cp150, S150/V149 (Moesziomyces antarcticus, UniProt P41365); assay: Initial rate of hydrolysis of DiFMU octanoate, cp150 (S150/V149)
T8 construct: Pichia pastoris, purified
Excerpt: as §3, §4
as §5, with “Corporation). […]” for “Corporation).”

[9] = molecular target: T9, Candida antarctica lipase B (CALB) circularly permuted variant cp268, P268/T267 (Moesziomyces antarcticus, UniProt P41365); assay: Initial rate of hydrolysis of DiFMU octanoate, cp268
T9 construct: Pichia pastoris, purified
Excerpt: as §3, §4, §5
(§6) The present study included ten CALB variants. […]

[10] = molecular target: T1, Candida antarctica lipase B (CALB), wild type, SEQ ID NO: 2, L1/P317; assay: Initial rate of hydrolysis of p-nitrophenol butyrate (pNB), wild type; conditions: kcat/KM (variant)/kcat/KM (wild type)
Excerpt: as §1, §2

[11] = molecular target: T2, Candida antarctica lipase B (CALB) circularly permuted variant cp44, G44/T43; assay: Initial rate of hydrolysis of pNB, cp44
Excerpt: as §3, §4, §5

[12] = molecular target: T3, Candida antarctica lipase B (CALB) circularly permuted variant cp144, His-L144/A141; assay: Initial rate of hydrolysis of pNB, cp144 (His)
Excerpt: as §3, §4, §5

[13] = molecular target: T4, Candida antarctica lipase B (CALB) circularly permuted variant cp144a, L144/A141; assay: Initial rate of hydrolysis of pNB, cp144a
Excerpt: as §3, §4
as §5, with “Corporation). […]” for “Corporation).”

[14] = molecular target: T5, Candida antarctica lipase B (CALB) circularly permuted variant cp148, His-A148/L147; assay: Initial rate of hydrolysis of pNB, cp148 (His)
Excerpt: as §3, §4, §5

[15] = molecular target: T6, Candida antarctica lipase B (CALB) circularly permuted variant cp148a, A148/L147; assay: Initial rate of hydrolysis of pNB, cp148a
Excerpt: as §3, §4
as §5, with “Corporation). […]” for “Corporation).”

[16] = molecular target: T10, Candida antarctica lipase B (CALB) circularly permuted variant cp150, His-S150/V149 (Moesziomyces antarcticus, UniProt P41365); assay: Initial rate of hydrolysis of pNB, cp150 (His)
T10 construct: Pichia pastoris, purified
Excerpt: as §3, §4, §5

[17] = molecular target: T8, Candida antarctica lipase B (CALB) circularly permuted variant cp150, S150/V149; assay: Initial rate of hydrolysis of pNB, cp150 (S150/V149)
Excerpt: as §3, §4
as §5, with “Corporation). […]” for “Corporation).”

[18] = molecular target: T9, Candida antarctica lipase B (CALB) circularly permuted variant cp268, P268/T267; assay: Initial rate of hydrolysis of pNB, cp268
Excerpt: as §3, §4, §5, §6

[19] = 50 mM K-phosphate pH 7.0, room temperature
[20] = kcat/KM (variant)/kcat/KM (wild type)
[21] = 50 mM K-phosphate pH 7.5, room temperature

T7 sequence (P41365 26-342, stated change not applied): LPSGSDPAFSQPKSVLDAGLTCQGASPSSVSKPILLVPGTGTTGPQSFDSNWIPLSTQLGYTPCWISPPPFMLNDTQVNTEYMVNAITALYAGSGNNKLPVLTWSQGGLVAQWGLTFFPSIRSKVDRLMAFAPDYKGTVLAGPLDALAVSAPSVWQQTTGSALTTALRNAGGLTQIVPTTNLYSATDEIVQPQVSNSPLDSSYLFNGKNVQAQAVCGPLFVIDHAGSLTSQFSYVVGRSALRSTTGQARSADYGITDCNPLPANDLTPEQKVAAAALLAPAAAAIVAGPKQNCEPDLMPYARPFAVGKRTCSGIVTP

CCCCCCCC(=O)Oc1c(F)cc2c(C)cc(=O)oc2c1F [DiFMU octanoate, 6,8-difluoro-4-methylumbelliferyl octanoate]
relative specificity [1]: 1.0 | Km [2, 19]: 5.6 ± 0.8 µM | relative specificity [2, 20]: 0.13 | kcat ([2]; pH 7.0, room temperature): 0.5 ± 0.05 min⁻¹ | kcat/KM ([2]; pH 7.0, room temperature): 0.1 min⁻¹ µM⁻¹ | Km [3, 19]: 2000 ± 500 nM | relative specificity [3, 20]: 0.6 | kcat ([3]; pH 7.0, room temperature): 1 ± 0.1 min⁻¹ | kcat/KM ([3]; pH 7.0, room temperature): 0.5 min⁻¹ µM⁻¹ | Km [4, 19]: 3 ± 0.3 µM | relative specificity [4, 20]: 0.6 | kcat ([4]; pH 7.0, room temperature): 1.5 ± 0.1 min⁻¹ | kcat/KM ([4]; pH 7.0, room temperature): 0.5 min⁻¹ µM⁻¹ | Km [5, 19]: 3.5 ± 0.5 µM | relative specificity [5, 20]: 0.4 | kcat ([5]; pH 7.0, room temperature): 1.5 ± 0.2 min⁻¹ | kcat/KM ([5]; pH 7.0, room temperature): 0.35 min⁻¹ µM⁻¹ | Km [6, 19]: 6.1 ± 0.7 µM | relative specificity [6, 20]: 0.7 | kcat ([6]; pH 7.0, room temperature): 3.5 ± 0.2 min⁻¹ | kcat/KM ([6]; pH 7.0, room temperature): 0.57 min⁻¹ µM⁻¹ | Km [7, 19]: 2700 ± 800 nM | relative specificity [7, 20]: 1.0 | kcat ([7]; pH 7.0, room temperature): 2.1 ± 0.2 min⁻¹ | kcat/KM ([7]; pH 7.0, room temperature): 0.8 min⁻¹ µM⁻¹ | Km [8, 19]: 5.5 ± 0.9 µM | relative specificity [8, 20]: 0.5 | kcat ([8]; pH 7.0, room temperature): 2.2 ± 0.2 min⁻¹ | kcat/KM ([8]; pH 7.0, room temperature): 0.4 min⁻¹ µM⁻¹ | Km [9, 19]: 2300 ± 300 nM | relative specificity [9, 20]: 15.6 | kcat ([9]; pH 7.0, room temperature): 28.8 ± 1.1 min⁻¹ | kcat/KM ([9]; pH 7.0, room temperature): 12.5 min⁻¹ µM⁻¹

CCCC(=O)Oc1ccc([N+](=O)[O-])cc1 [pNB, p-Nitrophenyl butyrate]
relative specificity [10]: 1.0 | Km [11, 21]: 690 ± 90 µM | relative specificity [11, 20]: 0.01 | kcat ([11]; pH 7.5, room temperature): 6 ± 0.5 min⁻¹ | kcat/KM ([11]; pH 7.5, room temperature): 0.01 min⁻¹ µM⁻¹ | Km [12, 21]: 550 ± 50 µM | relative specificity [12, 20]: 0.4 | kcat ([12]; pH 7.5, room temperature): 178 ± 7 min⁻¹ | kcat/KM ([12]; pH 7.5, room temperature): 0.32 min⁻¹ µM⁻¹ | Km [13, 21]: 820 ± 100 µM | relative specificity [13, 20]: 0.7 | kcat ([13]; pH 7.5, room temperature): 435 ± 28 min⁻¹ | kcat/KM ([13]; pH 7.5, room temperature): 0.53 min⁻¹ µM⁻¹ | Km [14, 21]: 500 ± 30 µM | relative specificity [14, 20]: 0.5 | kcat ([14]; pH 7.5, room temperature): 171 ± 4 min⁻¹ | kcat/KM ([14]; pH 7.5, room temperature): 0.34 min⁻¹ µM⁻¹ | Km [15, 21]: 550 ± 70 µM | relative specificity [15, 20]: 1.2 | kcat ([15]; pH 7.5, room temperature): 481 ± 29 min⁻¹ | kcat/KM ([15]; pH 7.5, room temperature): 0.87 min⁻¹ µM⁻¹ | Km [16, 21]: 510 ± 90 µM | relative specificity [16, 20]: 1.4 | kcat ([16]; pH 7.5, room temperature): 520 ± 45 min⁻¹ | kcat/KM ([16]; pH 7.5, room temperature): 1.02 min⁻¹ µM⁻¹ | Km [17, 21]: 425 ± 50 µM | relative specificity [17, 20]: 1.1 | kcat ([17]; pH 7.5, room temperature): 347 ± 16 min⁻¹ | kcat/KM ([17]; pH 7.5, room temperature): 0.82 min⁻¹ µM⁻¹ | Km [18, 21]: 580 ± 90 µM | relative specificity [18, 20]: 7.1 | kcat ([18]; pH 7.5, room temperature): 3051 ± 229 min⁻¹ | kcat/KM ([18]; pH 7.5, room temperature): 5.26 min⁻¹ µM⁻¹
